PubChem BioAssay (NCI)
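Each compound was tested at five concentrations against cells in 96-well plates for 48 hours. TGI: total growth inhibition.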 Where a SMILES comes first, the peptide text is derived from it. [ ]: non-standard residue; d: D form.

Legend:
Assay in all cases: NCI tumour cell line growth inhibition, 48 h
OVCAR-4 ovarian = tested on: OVCAR-4 ovarian
RXF 393 renal = tested on: RXF 393 renal
A498 renal = tested on: A498 renal
KM12 colon = tested on: KM12 colon
HL-60(TB) leukemia = tested on: HL-60(TB) leukemia
HOP-92 NSCLC = tested on: HOP-92 NSCLC
SF-539 CNS = tested on: SF-539 CNS
XF 498 CNS = tested on: XF 498 CNS
SNB-78 CNS = tested on: SNB-78 CNS
DLD-1 colon = tested on: DLD-1 colon
SNB-75 CNS = tested on: SNB-75 CNS
LOX IMVI melanoma = tested on: LOX IMVI melanoma
NCI-H522 lung = tested on: NCI-H522 lung
EKVX NSCLC = tested on: EKVX NSCLC
UACC-257 melanoma = tested on: UACC-257 melanoma
IGROV1 ovarian = tested on: IGROV1 ovarian
COLO 205 colon = tested on: COLO 205 colon
SN12K1 renal = tested on: SN12K1 renal
NCI/ADR-RES ovarian = tested on: NCI/ADR-RES ovarian
SK-MEL-5 melanoma = tested on: SK-MEL-5 melanoma
OVCAR-3 ovarian = tested on: OVCAR-3 ovarian
SN12C renal = tested on: SN12C renal
HCC-2998 colon = tested on: HCC-2998 colon
NCI-H460 lung = tested on: NCI-H460 lung
M19-MEL melanoma = tested on: M19-MEL melanoma
SK-MEL-28 melanoma = tested on: SK-MEL-28 melanoma
KM20L2 colon = tested on: KM20L2 colon
DMS 273 small cell lung = tested on: DMS 273 small cell lung
SNB-19 CNS = tested on: SNB-19 CNS
P388/ADR leukemia = tested on: P388/ADR leukemia
CCRF-CEM leukemia = tested on: CCRF-CEM leukemia
MOLT-4 leukemia = tested on: MOLT-4 leukemia
MALME-3M melanoma = tested on: MALME-3M melanoma
SK-OV-3 ovarian = tested on: SK-OV-3 ovarian
SF-268 CNS = tested on: SF-268 CNS
SK-MEL-2 melanoma = tested on: SK-MEL-2 melanoma
MCF7 breast = tested on: MCF7 breast
DMS 114 small cell lung = tested on: DMS 114 small cell lung
HCT-15 colon = tested on: HCT-15 colon
NCI-H23 lung = tested on: NCI-H23 lung
UO-31 renal = tested on: UO-31 renal
OVCAR-5 ovarian = tested on: OVCAR-5 ovarian
HCT-116 colon = tested on: HCT-116 colon
U251 CNS = tested on: U251 CNS
OVCAR-8 ovarian = tested on: OVCAR-8 ovarian
P388 leukemia = tested on: P388 leukemia
SF-295 CNS = tested on: SF-295 CNS
K-562 leukemia = tested on: K-562 leukemia
SW-620 colon = tested on: SW-620 colon
A549 NSCLC = tested on: A549 NSCLC
UACC-62 melanoma = tested on: UACC-62 melanoma
HOP-62 NSCLC = tested on: HOP-62 NSCLC
HT29 colon = tested on: HT29 colon
NCI-H226 lung = tested on: NCI-H226 lung
RPMI-8226 leukemia = tested on: RPMI-8226 leukemia
HOP-18 NSCLC = tested on: HOP-18 NSCLC
BT-549 breast = tested on: BT-549 breast
CAKI-1 renal = tested on: CAKI-1 renal
MDA-N = tested on: MDA-N
TK-10 renal = tested on: TK-10 renal
MDA-MB-435 = tested on: MDA-MB-435
SR leukemia = tested on: SR leukemia
786-0 renal = tested on: 786-0 renal
MDA-MB-231 breast = tested on: MDA-MB-231 breast
HS 578T breast = tested on: HS 578T breast
T-47D breast = tested on: T-47D breast
DU-145 prostate = tested on: DU-145 prostate
M14 melanoma = tested on: M14 melanoma
ACHN renal = tested on: ACHN renal
PC-3 prostate = tested on: PC-3 prostate

CC(C)C[C@H](NC(=O)[C@H](CC(C)C)NC(=O)[C@@H](Cc1c[nH]c2ccccc12)NC(=O)[C@H](Cc1ccccc1)NC(=O)[C@@H](Cc1c[nH]c2ccccc12)NC(=O)[C@H](CCC(N)=O)NC(=O)[C@@H](CCC(N)=O)NC(=O)[C@@H]1CCCN1C(=O)[C@@H](CCCCN)NC(=O)[C@H]1CCCN1C(=O)[C@H](N)CCCN=C(N)N)C(N)=O (H-[dR][dP][dK]P[dQ]Q[dW]F[dW]LL-NH2)
TGI (OVCAR-4 ovarian): > 100 µM
TGI (RXF 393 renal): > 100 µM
TGI (A498 renal): 88.1 µM
TGI (KM12 colon): > 100 µM
TGI (HL-60(TB) leukemia): > 100 µM
TGI (HOP-92 NSCLC): > 100 µM
TGI (SF-539 CNS): > 100 µM
TGI (XF 498 CNS): > 100 µM
TGI (SNB-78 CNS): > 100 µM
TGI (DLD-1 colon): > 100 µM
TGI (SNB-75 CNS): > 100 µM
TGI (LOX IMVI melanoma): > 100 µM
TGI (NCI-H522 lung): > 100 µM
TGI (EKVX NSCLC): > 100 µM
TGI (UACC-257 melanoma): > 100 µM
TGI (IGROV1 ovarian): > 100 µM
TGI (COLO 205 colon): > 100 µM
TGI (SN12K1 renal): > 100 µM
TGI (NCI/ADR-RES ovarian): > 100 µM
TGI (SK-MEL-5 melanoma): > 100 µM
TGI (OVCAR-3 ovarian): > 100 µM
TGI (SN12C renal): > 100 µM
TGI (HCC-2998 colon): > 100 µM
TGI (NCI-H460 lung): > 100 µM
TGI (M19-MEL melanoma): > 100 µM
TGI (SK-MEL-28 melanoma): > 100 µM
TGI (KM20L2 colon): > 100 µM
TGI (DMS 273 small cell lung): > 100 µM
TGI (SNB-19 CNS): > 100 µM
TGI (P388/ADR leukemia): > 100 µM
TGI (CCRF-CEM leukemia): > 100 µM
TGI (MOLT-4 leukemia): > 79.5 µM
TGI (MALME-3M melanoma): > 31.6 µM
TGI (SK-OV-3 ovarian): > 100 µM
TGI (SF-268 CNS): > 100 µM
TGI (SK-MEL-2 melanoma): > 100 µM
TGI (MCF7 breast): > 100 µM
TGI (DMS 114 small cell lung): > 100 µM
TGI (HCT-15 colon): > 100 µM
TGI (NCI-H23 lung): > 100 µM
TGI (UO-31 renal): > 100 µM
TGI (OVCAR-5 ovarian): > 100 µM
TGI (HCT-116 colon): > 100 µM
TGI (U251 CNS): > 93.2 µM
TGI (OVCAR-8 ovarian): > 100 µM
TGI (P388 leukemia): > 100 µM
TGI (SF-295 CNS): > 100 µM
TGI (K-562 leukemia): > 100 µM
TGI (SW-620 colon): > 100 µM
TGI (A549 NSCLC): > 100 µM
TGI (UACC-62 melanoma): > 100 µM
TGI (HOP-62 NSCLC): > 100 µM
TGI (HT29 colon): > 100 µM
TGI (NCI-H226 lung): > 100 µM
TGI (RPMI-8226 leukemia): > 100 µM
TGI (HOP-18 NSCLC): > 100 µM

COc1cc2c(cc1OC)C(Cl)C(c1ccc(Br)cc1)=C2Cl (stereo not given)
TGI (OVCAR-4 ovarian): 63.5 µM
TGI (RXF 393 renal): 24.6 µM
TGI (A498 renal): 33.1 µM
TGI (KM12 colon): 34.6 µM
TGI (HL-60(TB) leukemia): > 67.3 µM
TGI (HOP-92 NSCLC): 36.2 µM
TGI (SF-539 CNS): 26.1 µM
TGI (BT-549 breast): 5.44 µM
TGI (SNB-78 CNS): 32.6 µM
TGI (DLD-1 colon): 27.6 µM
TGI (SNB-75 CNS): 27.7 µM
TGI (LOX IMVI melanoma): 24.4 µM
TGI (NCI-H522 lung): 12.8 µM
TGI (EKVX NSCLC): 17.2 µM
TGI (UACC-257 melanoma): 31.6 µM
TGI (CAKI-1 renal): 32 µM
TGI (IGROV1 ovarian): 31.8 µM
TGI (COLO 205 colon): 29.1 µM
TGI (MDA-N): 13.6 µM
TGI (TK-10 renal): 23.6 µM
TGI (SN12K1 renal): 29.4 µM
TGI (MDA-MB-435): 17.4 µM
TGI (NCI/ADR-RES ovarian): 30.9 µM
TGI (SR leukemia): > 100 µM
TGI (SK-MEL-5 melanoma): 28.6 µM
TGI (OVCAR-3 ovarian): 24.1 µM
TGI (786-0 renal): 16.7 µM
TGI (MDA-MB-231 breast): 21.6 µM
TGI (SN12C renal): 25.4 µM
TGI (HCC-2998 colon): 27.4 µM
TGI (NCI-H460 lung): 25.8 µM
TGI (M19-MEL melanoma): 36 µM
TGI (SK-MEL-28 melanoma): 30.7 µM
TGI (KM20L2 colon): 41.3 µM
TGI (DMS 273 small cell lung): 31.6 µM
TGI (SNB-19 CNS): 32 µM
TGI (P388/ADR leukemia): > 100 µM
TGI (HS 578T breast): 59.3 µM
TGI (CCRF-CEM leukemia): > 100 µM
TGI (MOLT-4 leukemia): 49.2 µM
TGI (MALME-3M melanoma): 28 µM
TGI (SK-OV-3 ovarian): 45.9 µM
TGI (SF-268 CNS): 29.4 µM
TGI (SK-MEL-2 melanoma): 22.5 µM
TGI (MCF7 breast): 21.2 µM
TGI (DMS 114 small cell lung): 23.3 µM
TGI (HCT-15 colon): 23.6 µM
TGI (T-47D breast): 15.1 µM
TGI (NCI-H23 lung): 23.8 µM
TGI (UO-31 renal): 17.1 µM
TGI (OVCAR-5 ovarian): 31 µM
TGI (HCT-116 colon): 22.7 µM
TGI (U251 CNS): 24.8 µM
TGI (DU-145 prostate): 23.8 µM
TGI (OVCAR-8 ovarian): 26.1 µM
TGI (P388 leukemia): > 100 µM
TGI (SF-295 CNS): 30.5 µM
TGI (K-562 leukemia): 41.9 µM
TGI (SW-620 colon): 23.4 µM
TGI (M14 melanoma): 23.3 µM
TGI (A549 NSCLC): 33 µM
TGI (ACHN renal): 21.3 µM
TGI (UACC-62 melanoma): 50.6 µM
TGI (HOP-62 NSCLC): 35.4 µM
TGI (PC-3 prostate): 21.6 µM
TGI (HT29 colon): 28.5 µM
TGI (NCI-H226 lung): > 55.1 µM
TGI (RPMI-8226 leukemia): 15.2 µM
TGI (HOP-18 NSCLC): 56.4 µM
